In ChEMBL document CHEMBL1124182, “Design, synthesis, and properties of (4S)-7-(4-amino-2-substituted-pyrrolidin-1-yl)quinolone-3-carboxylic acids” (J Med Chem, 1988):
≈ marks a conversion by molar mass, not a printed value.

Experiments:
[1] = tested on: Pseudomonas aeruginosa; test: In vitro Minimum inhibitory concentration against Pseudomonas aeruginosa K799/WT; type: functional
[2] = tested on: Streptococcus equinus; test: In vitro Minimum inhibitory concentration against Streptococcus bovis A5169; type: functional
[3] = tested on: Staphylococcus epidermidis; test: In vitro Minimum inhibitory concentration against Staphylococcus epidermidis 3519; type: functional
[4] = tested on: Streptococcus agalactiae; test: In vitro Minimum inhibitory concentration against Streptococcus agalactiae CMX 508; type: functional
[5] = tested on: Enterococcus faecium; test: In vitro Minimum inhibitory concentration against Streptococcus faecium ATCC 8043; type: functional
[6] = tested on: Staphylococcus aureus; test: In vitro Minimum inhibitory concentration against Staphylococcus aureus ATCC 6538P; type: functional
[7] = tested on: Staphylococcus aureus; test: In vitro Minimum inhibitory concentration against Staphylococcus aureus CMX 686B; type: functional
[8] = tested on: Streptococcus pyogenes; test: In vitro Minimum inhibitory concentration against Streptococcus pyogenes 930; type: functional
[9] = tested on: Staphylococcus aureus; test: In vitro Minimum inhibitory concentration against Staphylococcus aureus 45; type: functional
[10] = tested on: Escherichia coli; test: In vitro Minimum inhibitory concentration against Escherichia coli Juhl; type: functional
[11] = tested on: Klebsiella pneumoniae; test: In vitro Minimum inhibitory concentration against Klebsiella pneumoniae 8045; type: functional
[12] = tested on: Pseudomonas aeruginosa; test: In vitro Minimum inhibitory concentration against Pseudomonas aeruginosa 5007; type: functional
[13] = tested on: Acinetobacter; test: In vitro Minimum inhibitory concentration against Acinetobacter CMX 669; type: functional; details: Acinetobacter; read-out: MIC
[14] = tested on: Staphylococcus aureus; test: In vitro Minimum inhibitory concentration against Staphylococcus aureus A5177; type: functional
[15] = tested on: Mus musculus; test: In vivo efficacy against Escherichia coli Juhl, in mouse protection tests when administered subcutaneously (sc); type: functional
[16] = tested on: Escherichia coli; test: Supercoiling inhibition assay using purified DNA gyrase isolated from Escherichia coli H560; type: functional; details: read-out: I50
[17] = tested on: Staphylococcus aureus; test: In vivo efficacy against Staphylococcus aureus 10649, in mouse protection tests when administered perorally (po); type: functional
[18] = Blood level was evaluated by a disk agar diffusion assay at 3.0 hh when administered at a peroral dose of 25 mg/kg; type: ADME, organism-based; design: dose 25 mg/kg, route oral; details: mouse, po, read-out: Blood level
[19] = tested on: Staphylococcus aureus; test: In vivo efficacy against Staphylococcus aureus 10649, in mouse protection tests when administered subcutaneously (sc); type: functional
[20] = Partition coefficient (logP); type: physicochemical; details: octanol/water
[21] = tested on: Mus musculus; test: In vivo efficacy against Escherichia coli Juhl, in mouse protection tests when administered perorally (po); type: functional
[22] = Compound was evaluated for the solubility in Ringer's buffer solution; type: ADME
[23] = Blood level was evaluated by a disk agar diffusion assay at 3.0 hh when administered at a peroral dose of 100 mg/kg; type: ADME, organism-based; design: dose 100 mg/kg, route oral; details: mouse, po, read-out: Blood level
[24] = Ringer's buffer solution, read-out: Solubility

SMILES | MIC [1] [µg/mL] | MIC [2] [µg/mL] | MIC [3] [µg/mL] | MIC [4] [µg/mL] | MIC [5] [µg/mL] | MIC [6] [µg/mL] | MIC [7] [µg/mL] | MIC [8] [µg/mL] | MIC [9] [µg/mL] | MIC [10] [µg/mL] | MIC [11] [µg/mL] | MIC [12] [µg/mL] | MIC [13] [µg/mL] | MIC [14] [µg/mL] | IC50 [16] [µg/mL] | logP [20] | solubility [22, 24] [µg/mL] | other results
NC1CCN(c2nc3c(cc2F)c(=O)c(C(=O)O)cn3-c2ccc(F)cc2F)C1 (centres undefined) [TOSUFLOXACIN] | 0.39 (≈ 0.965 µM) | 0.78 (≈ 1.93 µM) | 0.1 (≈ 0.247 µM) | 0.2 (≈ 0.495 µM) | 0.2 (≈ 0.495 µM) | 0.02 (≈ 0.0495 µM) | 0.05 (≈ 0.124 µM) | 0.1 (≈ 0.247 µM) | 0.05 (≈ 0.124 µM) | 0.02 (≈ 0.0495 µM) | 0.01 (≈ 0.0247 µM) | 0.78 (≈ 1.93 µM) | 0.05 (≈ 0.124 µM) | 0.05 (≈ 0.124 µM) | 0.4 (≈ 0.989 µM) | -0.46 |  | concentration at 3 h [23]: 1700 ng/mL; solubility ([22]; buffer): 8 µg/mL (≈ 19.8 µM)
O=C(O)c1cn(-c2ccc(F)cc2)c2cc(N3CCC[C@@H]3CO)c(F)cc2c1=O | 3.1 (≈ 7.74 µM) | 25 (≈ 62.4 µM) | 0.39 (≈ 0.974 µM) | 3.1 (≈ 7.74 µM) | 3.1 (≈ 7.74 µM) | 0.1 (≈ 0.25 µM) | 0.1 (≈ 0.25 µM) | 3.1 (≈ 7.74 µM) | 0.39 (≈ 0.974 µM) | 0.78 (≈ 1.95 µM) | 0.78 (≈ 1.95 µM) | 3.1 (≈ 7.74 µM) | 0.78 (≈ 1.95 µM) | 0.39 (≈ 0.974 µM) |  |  |  | 
O=C(O)c1cn(-c2ccc(F)cc2)c2cc(N3CCC[C@H]3CO)c(F)cc2c1=O | > 100 | 100 (≈ 250 µM) | 3.1 (≈ 7.74 µM) | 100 (≈ 250 µM) | > 100 | 3.1 (≈ 7.74 µM) | 3.1 (≈ 7.74 µM) | 50 (≈ 125 µM) | 3.1 (≈ 7.74 µM) | 50 (≈ 125 µM) | 25 (≈ 62.4 µM) | > 100 | > 100 | 3.1 (≈ 7.74 µM) |  |  |  | 
N[C@H]1CC(CO)N(c2cc3c(cc2F)c(=O)c(C(=O)O)cn3-c2ccc(F)cc2F)C1 (some centres undefined) | 0.39 (≈ 0.9 µM) | 1.56 (≈ 3.6 µM) | 0.78 (≈ 1.8 µM) | 0.78 (≈ 1.8 µM) | 0.78 (≈ 1.8 µM) | 0.1 (≈ 0.231 µM) | 0.39 (≈ 0.9 µM) | 0.39 (≈ 0.9 µM) | 1.56 (≈ 3.6 µM) | 0.78 (≈ 1.8 µM) | 0.78 (≈ 1.8 µM) | 0.78 (≈ 1.8 µM) | 6.2 (≈ 14.3 µM) | 0.78 (≈ 1.8 µM) | 0.4 (≈ 0.923 µM) | -0.98 | 60 (≈ 138 µM) | ED50 [15]: 5.9 mg/kg; ED50 [17]: 5.4 mg/kg; ED50 [19]: 0.7 mg/kg; ED50 [21]: > 16 mg/kg
COCC1C[C@H](N)CN1c1nc2c(cc1F)c(=O)c(C(=O)O)cn2-c1ccc(F)cc1F (some centres undefined) | 1.56 (≈ 3.48 µM) | 1.56 (≈ 3.48 µM) | 0.39 (≈ 0.87 µM) | 0.78 (≈ 1.74 µM) | 0.78 (≈ 1.74 µM) | 0.1 (≈ 0.223 µM) | 0.1 (≈ 0.223 µM) | 0.78 (≈ 1.74 µM) | 0.39 (≈ 0.87 µM) | 0.2 (≈ 0.446 µM) | 0.1 (≈ 0.223 µM) | 1.56 (≈ 3.48 µM) | 0.78 (≈ 1.74 µM) | 0.2 (≈ 0.446 µM) |  |  |  | 
N[C@H]1CC(CF)N(c2nc3c(cc2F)c(=O)c(C(=O)O)cn3-c2ccc(F)cc2F)C1 (some centres undefined) | 0.78 (≈ 1.79 µM) | 0.78 (≈ 1.79 µM) | 0.2 (≈ 0.458 µM) | 0.39 (≈ 0.894 µM) | 0.2 (≈ 0.458 µM) | 0.05 (≈ 0.115 µM) | 0.05 (≈ 0.115 µM) | 0.2 (≈ 0.458 µM) | 0.1 (≈ 0.229 µM) | 0.1 (≈ 0.229 µM) | 0.1 (≈ 0.229 µM) | 0.78 (≈ 1.79 µM) | 0.39 (≈ 0.894 µM) | 0.1 (≈ 0.229 µM) | 0.75 (≈ 1.72 µM) |  |  | 
N[C@H]1C[C@@H](CO)N(c2cc3c(cc2F)c(=O)c(C(=O)O)cn3-c2ccc(F)cc2F)C1 | 12.5 (≈ 28.8 µM) | 50 (≈ 115 µM) | 12.5 (≈ 28.8 µM) | 12.5 (≈ 28.8 µM) | 25 (≈ 57.7 µM) | 1.56 (≈ 3.6 µM) | 6.2 (≈ 14.3 µM) | 25 (≈ 57.7 µM) | 12.5 (≈ 28.8 µM) | 3.1 (≈ 7.15 µM) | 3.1 (≈ 7.15 µM) | 12.5 (≈ 28.8 µM) | 25 (≈ 57.7 µM) | 6.2 (≈ 14.3 µM) | 10 (≈ 23.1 µM) |  | 60 (≈ 138 µM) | 

The next lines start with results.

MIC [1] [µg/mL] | MIC [2] [µg/mL] | MIC [3] [µg/mL] | MIC [4] [µg/mL] | MIC [5] [µg/mL] | MIC [6] [µg/mL] | MIC [7] [µg/mL] | MIC [8] [µg/mL] | MIC [9] [µg/mL] | MIC [10] [µg/mL] | MIC [11] [µg/mL] | MIC [12] [µg/mL] | MIC [13] [µg/mL] | MIC [14] [µg/mL] | IC50 [16] [µg/mL] | logP [20] | solubility [22, 24] [µg/mL] | SMILES | other results
0.39 (≈ 0.937 µM) | 1.56 (≈ 3.75 µM) | 0.39 (≈ 0.937 µM) | 0.78 (≈ 1.87 µM) | 0.39 (≈ 0.937 µM) | 0.1 (≈ 0.24 µM) | 0.2 (≈ 0.48 µM) | 0.78 (≈ 1.87 µM) | 0.78 (≈ 1.87 µM) | 0.05 (≈ 0.12 µM) | 0.05 (≈ 0.12 µM) | 0.39 (≈ 0.937 µM) | 0.39 (≈ 0.937 µM) | 0.39 (≈ 0.937 µM) |  |  |  | O=C(O)c1cn(-c2ccc(F)cc2F)c2nc(N3C[C@@H]4C[C@H]3CN4)c(F)cc2c1=O | 
0.39 (≈ 0.939 µM) | 1.56 (≈ 3.76 µM) | 0.39 (≈ 0.939 µM) | 0.78 (≈ 1.88 µM) | 0.39 (≈ 0.939 µM) | 0.1 (≈ 0.241 µM) | 0.2 (≈ 0.481 µM) | 0.78 (≈ 1.88 µM) | 0.78 (≈ 1.88 µM) | 0.05 (≈ 0.12 µM) | 0.05 (≈ 0.12 µM) | 1.56 (≈ 3.76 µM) | 0.39 (≈ 0.939 µM) | 0.39 (≈ 0.939 µM) |  |  |  | O=C(O)c1cn(-c2ccc(F)cc2F)c2cc(N3C[C@@H]4C[C@H]3CN4)c(F)cc2c1=O | 
0.39 (≈ 0.934 µM) | 0.2 (≈ 0.479 µM) | 0.2 (≈ 0.479 µM) | 0.1 (≈ 0.24 µM) | 0.1 (≈ 0.24 µM) | 0.02 (≈ 0.0479 µM) | 0.05 (≈ 0.12 µM) | 0.2 (≈ 0.479 µM) | 0.1 (≈ 0.24 µM) | 0.05 (≈ 0.12 µM) | 0.02 (≈ 0.0479 µM) | 3.1 (≈ 7.43 µM) | 0.1 (≈ 0.24 µM) | 0.2 (≈ 0.479 µM) | 0.9 (≈ 2.16 µM) | 0.085 | 53 (≈ 127 µM) | C[C@H]1C[C@H](N)CN1c1cc2c(cc1F)c(=O)c(C(=O)O)cn2-c1ccc(F)cc1F | ED50 [15]: 0.9 mg/kg; ED50 [17]: 3.3 mg/kg; concentration at 3 h [18]: 1100 ng/mL; ED50 [19]: < 0.5 mg/kg; ED50 [21]: 3.6 mg/kg
6.2 (≈ 14.9 µM) | 6.2 (≈ 14.9 µM) | 0.78 (≈ 1.87 µM) | 6.2 (≈ 14.9 µM) | 3.1 (≈ 7.43 µM) | 0.39 (≈ 0.934 µM) | 0.39 (≈ 0.934 µM) | 1.56 (≈ 3.74 µM) | 0.78 (≈ 1.87 µM) | 0.78 (≈ 1.87 µM) | 0.78 (≈ 1.87 µM) | 5 (≈ 12 µM) | 3.1 (≈ 7.43 µM) | 0.78 (≈ 1.87 µM) | 18 (≈ 43.1 µM) | 0.03 | 182 (≈ 436 µM) | C[C@@H]1C[C@H](N)CN1c1cc2c(cc1F)c(=O)c(C(=O)O)cn2-c1ccc(F)cc1F | 
